Measured values reported in patent US20100029710A1, “COMPOUNDS HAVING BOTH ANGIOTENSIN II RECEPTOR ANTAGONISM AND PPARy ACTIVATING ACTIVITIES” (Pfizer Products Inc., priority 2006, published 2010).

Legend:
[1] = molecular target: T1, human PPARγ LBD bound to Gal4 DBD (Homo sapiens, UniProt P37231); assay: PPARγ transfection luciferase reporter assay in HepG2 cells; type: cell-based; details: for Emax: HepG2, 24 h, compared to full agonist response (standard TZD full agonist), read-out: PPARγ % activation; for EC50: HepG2, 24 hours exposure
T1 construct: expressed in transfected cells; host or cells: HepG2
T1 sequence (P37231 238-503 limits assumed): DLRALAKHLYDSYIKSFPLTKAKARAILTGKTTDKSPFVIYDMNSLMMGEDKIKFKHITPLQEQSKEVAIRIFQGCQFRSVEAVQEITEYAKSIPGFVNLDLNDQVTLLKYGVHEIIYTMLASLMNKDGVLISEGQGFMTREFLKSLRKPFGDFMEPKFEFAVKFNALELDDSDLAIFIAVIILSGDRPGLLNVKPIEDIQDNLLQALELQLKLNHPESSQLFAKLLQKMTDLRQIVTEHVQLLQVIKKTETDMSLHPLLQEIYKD
In short: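 HepG2 cells transiently co-transfected with Gal4 DBD–PPARγ LBD, luciferase reporter and β-galactosidase, then exposed 24 h to compound (0.1 nM–100 μM). Luciferase/β-gal ratio gives activation. EC50 is relative to each compound's own maximum; efficacy is % of a reference TZD full agonist.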

[2] = molecular target: T2, Human recombinant AT1 receptor (Homo sapiens, UniProt P30556); assay: AT1 receptor radioligand binding (flashplate); details: 125I Sar1,Ile8-Angiotensin II radioligand
T2 construct: purchased
T2 sequence (P30556 1-359): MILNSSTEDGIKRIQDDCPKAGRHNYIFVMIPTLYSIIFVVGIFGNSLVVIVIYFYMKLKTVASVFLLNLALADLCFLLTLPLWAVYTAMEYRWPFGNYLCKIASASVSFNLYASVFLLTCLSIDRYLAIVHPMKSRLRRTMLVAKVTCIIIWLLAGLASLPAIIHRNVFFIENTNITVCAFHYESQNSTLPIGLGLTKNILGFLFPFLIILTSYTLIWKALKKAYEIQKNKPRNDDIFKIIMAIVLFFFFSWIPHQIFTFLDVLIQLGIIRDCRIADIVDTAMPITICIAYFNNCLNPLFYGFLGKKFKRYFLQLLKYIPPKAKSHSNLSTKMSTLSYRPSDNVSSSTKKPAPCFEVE
In short: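 Human recombinant AT1 receptor was coated on flashplates and competed against 125I-Sar1,Ile8-angiotensin II at its Kd concentration for 2 h at room temperature. Compounds were tested from […], with nonspecific binding defined by 10 μM angiotensin II. Ki was derived via Cheng-Prusoff.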

Row | Emax [1] | EC50 [1] | IC50 [2] | Compound
1 | 28% | 425 nM | 2.1 nM | CCc1nc2c(C)cc(CCc3cccnc3)nc2n1[C@H]1CCc2cc(-c3ccccc3-c3nnn[nH]3)ccc21 [Example 24, 3-((1S)-5-(2-(1H-tetrazol-5-yl)phenyl)-2,3-dihydro-1H-inden-1-yl)-2-ethyl-7-methyl-5-(2-(pyridin-3-yl)ethyl)-3H-imidazo[4,5-b]pyridine]
2 | 30% | 215 nM | 1.2 nM | CCc1nc2c(C)cc(CC[C@H](C)O)nc2n1[C@H]1CCc2cc(-c3ccccc3-c3nnn[nH]3)ccc21 [Example 36, (S)-4-(3-((1S)-5-(2-(1H-tetrazol-5-yl)phenyl)-2,3-dihydro-1H-inden-1-yl)-2-ethyl-7-methyl-3H-imidazo[4,5-b]pyridin-5-yl)butan-2-ol]
3 | 23% | 400 nM | 2.1 nM | CCc1nc2c(C)cc(CCCn3cccn3)nc2n1[C@H]1CCc2cc(-c3ccccc3-c3nnn[nH]3)ccc21 [Example 33, 5-(3-(1H-pyrazol-1-yl)propyl)-3-((1S)-5-(2-(1H-tetrazol-5-yl)phenyl)-2,3-dihydro-1H-inden-1-yl)-2-ethyl-7-methyl-3H-imidazo[4,5-b]pyridine]
4 | 46% | 275 nM | 10 nM | CCc1nc2c(C)cc(Cn3cccn3)nc2n1[C@H]1CCc2cc(-c3ccccc3-c3nnn[nH]3)ccc21 [Example 6, 5-((1H-pyrazol-1-yl)methyl)-3-((1S)-5-(2-(1H-tetrazol-5-yl)phenyl)-2,3-dihydro-1H-inden-1-yl)-2-ethyl-7-methyl-3H-imidazo[4,5-b]pyridine]
5 | 20% | 770 nM | 0.8 nM | CCCc1nc2c(C)cc(CC[C@@H](C)O)nc2n1[C@H]1CCc2cc(-c3ccccc3-c3nnn[nH]3)ccc21 [Example 40, (R)-4-(3-((1S)-5-(2-(1H-tetrazol-5-yl)phenyl)-2,3-dihydro-1H-inden-1-yl)-7-methyl-2-propyl-3H-imidazo[4,5-b]pyridin-5-yl)butan-2-ol]
6 | 20% | 840 nM | 1 nM | CCCc1nc2c(C)cc(CCC3(O)CCCC3)nc2n1[C@H]1CCc2cc(-c3ccccc3-c3nnn[nH]3)ccc21 [Example 43, 1-(2-(3-((1S)-5-(2-(1H-tetrazol-5-yl)phenyl)-2,3-dihydro-1H-inden-1-yl)-7-methyl-2-propyl-3H-imidazo[4,5-b]pyridin-5-yl)ethyl)cyclopentanol]
7 | 21% | 215 nM | 2 nM | CCc1nc2c(C)cc(CC[C@H](C)OC)nc2n1[C@H]1CCc2cc(-c3ccccc3-c3nnn[nH]3)ccc21 [Example 38, 3-((1S)-5-(2-(1H-tetrazol-5-yl)phenyl)-2,3-dihydro-1H-inden-1-yl)-2-ethyl-5-((S)-3-methoxybutyl)-7-methyl-3H-imidazo[4,5-b]pyridine]
8 | 34% | 550 nM | 1.3 nM | CCc1nc2c(C)cc(CCCO)nc2n1[C@H]1CCc2cc(-c3ccccc3-c3nnn[nH]3)ccc21 [Example 47, 3-(3-((1S)-5-(2-(1H-tetrazol-5-yl)phenyl)-2,3-dihydro-1H-inden-1-yl)-2-ethyl-7-methyl-3H-imidazo[4,5-b]pyridin-5-yl)propan-1-ol]
9 | 26% | 180 nM | 2.4 nM | CCc1nc2c(C)cc(CCc3ccccn3)nc2n1[C@H]1CCc2cc(-c3ccccc3-c3nnn[nH]3)ccc21 [Example 25, 3-((1S)-5-(2-(1H-tetrazol-5-yl)phenyl)-2,3-dihydro-1H-inden-1-yl)-2-ethyl-7-methyl-5-(2-(pyridin-2-yl)ethyl)-3H-imidazo[4,5-b]pyridine]
10 | 30% | 215 nM | 1.4 nM | CCc1nc2c(C)cc(CCC(C)(C)O)nc2n1[C@H]1CCc2cc(-c3ccccc3-c3nnn[nH]3)ccc21 [Example 53, 4-(3-((1S)-5-(2-(1H-tetrazol-5-yl)phenyl)-2,3-dihydro-1H-inden-1-yl)-2-ethyl-7-methyl-3H-imidazo[4,5-b]pyridin-5-yl)-2-methylbutan-2-ol]
